Results as given in PMC3961306, “Comparison of the Cancer Gene Targeting and Biochemical Selectivities of All Targeted Kinase Inhibitors Approved for Clinical Use” (PLoS ONE, 2014).

How the values were obtained:
Experiment in all cases: Kinase profiling in a biochemical assay panel (mobility shift assays and ELISA), %-inhibition at 1 μM; selectivity entropy
[1] = molecular target: T1, panel of more than 300 wild-type and mutant kinases (313 kinase panel) (Homo sapiens, UniProt O14920)
T1 sequence (O14920 1-756): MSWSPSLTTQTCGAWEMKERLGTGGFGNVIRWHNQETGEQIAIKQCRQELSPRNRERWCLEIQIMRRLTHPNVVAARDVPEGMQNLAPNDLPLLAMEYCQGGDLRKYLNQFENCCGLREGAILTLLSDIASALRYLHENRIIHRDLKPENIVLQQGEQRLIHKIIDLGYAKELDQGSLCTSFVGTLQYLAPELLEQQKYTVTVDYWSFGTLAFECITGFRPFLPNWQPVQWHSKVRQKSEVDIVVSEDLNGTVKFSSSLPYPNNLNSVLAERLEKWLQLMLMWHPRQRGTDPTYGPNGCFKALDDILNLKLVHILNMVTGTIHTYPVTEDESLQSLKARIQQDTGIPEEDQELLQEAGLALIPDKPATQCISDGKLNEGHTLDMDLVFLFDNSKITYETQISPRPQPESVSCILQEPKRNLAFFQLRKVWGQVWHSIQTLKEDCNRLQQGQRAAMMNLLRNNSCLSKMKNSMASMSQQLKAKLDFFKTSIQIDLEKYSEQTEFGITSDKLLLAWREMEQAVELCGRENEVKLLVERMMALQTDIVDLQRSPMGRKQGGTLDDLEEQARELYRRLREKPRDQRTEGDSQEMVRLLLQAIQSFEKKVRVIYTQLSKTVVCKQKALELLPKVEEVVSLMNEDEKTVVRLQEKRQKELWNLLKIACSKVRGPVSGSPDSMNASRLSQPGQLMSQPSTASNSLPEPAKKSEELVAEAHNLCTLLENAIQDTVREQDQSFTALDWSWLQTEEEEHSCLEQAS

[2] = molecular target: panel of more than 300 wild-type and mutant kinases (313 kinase panel) (Homo sapiens, UniProt P08922)
[3] = molecular target: panel of more than 300 wild-type and mutant kinases (313 kinase panel) (Homo sapiens, UniProt P35916)
[4] = molecular target: T2, panel of more than 300 wild-type and mutant kinases (313 kinase panel) (Homo sapiens, UniProt Q8TF76)
T2 sequence (Q8TF76 1-798): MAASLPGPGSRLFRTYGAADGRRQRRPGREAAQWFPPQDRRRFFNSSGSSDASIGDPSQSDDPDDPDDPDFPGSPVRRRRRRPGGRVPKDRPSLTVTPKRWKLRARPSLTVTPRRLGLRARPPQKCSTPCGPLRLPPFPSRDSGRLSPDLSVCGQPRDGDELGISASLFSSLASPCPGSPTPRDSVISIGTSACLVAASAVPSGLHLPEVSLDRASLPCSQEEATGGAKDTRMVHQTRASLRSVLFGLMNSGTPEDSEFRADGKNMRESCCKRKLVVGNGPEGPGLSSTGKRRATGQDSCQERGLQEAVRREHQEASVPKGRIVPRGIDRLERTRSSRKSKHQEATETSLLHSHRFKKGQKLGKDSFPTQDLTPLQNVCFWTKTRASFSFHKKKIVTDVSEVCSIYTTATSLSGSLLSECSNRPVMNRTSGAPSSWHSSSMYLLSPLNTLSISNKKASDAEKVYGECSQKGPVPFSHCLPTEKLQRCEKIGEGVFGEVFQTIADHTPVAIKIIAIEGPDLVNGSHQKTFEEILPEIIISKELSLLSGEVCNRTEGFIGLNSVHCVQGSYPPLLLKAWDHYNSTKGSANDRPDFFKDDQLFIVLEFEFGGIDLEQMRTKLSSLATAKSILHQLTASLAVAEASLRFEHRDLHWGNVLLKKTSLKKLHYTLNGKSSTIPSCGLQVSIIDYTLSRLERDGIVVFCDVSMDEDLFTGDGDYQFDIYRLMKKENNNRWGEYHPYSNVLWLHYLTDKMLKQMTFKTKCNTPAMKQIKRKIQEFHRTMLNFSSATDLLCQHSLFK

[5] = kinase Haspin, compound at 1 μM

SMILES	%-inhibition of IKKβ ([1]; kinase IKKβ, compound at 1 μM) [%]	%-inhibition of ROS ([2]; kinase ROS, 1 μM) [%]	%-inhibition of FLT4 ([3]; kinase FLT4, compound at 1 μM) [%]	%-inhibition of Haspin [4, 5] [%]	%-inhibition of IKKβ ([1]; 1 µM) [%]	%-inhibition of Haspin ([4]; 1 µM) [%]	%-inhibition of ROS ([2]; 1 µM) [%]	%-inhibition of FLT4 ([3]; 1 µM) [%]
COc1cc(Nc2c(C#N)cnc3cc(OCCCN4CCN(C)CC4)c(OC)cc23)c(Cl)cc1Cl [bosutinib]	-6	2.77	92					
COc1cc2nccc(Oc3ccc(NC(=O)C4(C(=O)Nc5ccc(F)cc5)CC4)cc3)c2cc1OC [cabozantinib]	-2.35		100	8				
C[C@@H](Oc1cc(-c2cnn(C3CCNCC3)c2)cnc1N)c1c(Cl)ccc(F)c1Cl [crizotinib]	-5		48	7				
CC(C)(C)c1nc(-c2cccc(NS(=O)(=O)c3c(F)cccc3F)c2F)c(-c2ccnc(N)n2)s1 [dabrafenib]	3.71	8.55	85	9				
Cc1nc(Nc2ncc(C(=O)Nc3c(C)cccc3Cl)s2)cc(N2CCN(CCO)CC2)n1 [dasatinib]			31	-13				
C#Cc1cccc(Nc2ncnc3cc(OCCOC)c(OCCOC)cc23)c1 [erlotinib]					11	-8	8.54	75
CO[C@H]1C[C@@H]2CC[C@@H](C)[C@@](O)(O2)C(=O)C(=O)N2CCCC[C@H]2C(=O)O[C@H]([C@H](C)C[C@@H]2CC[C@@H](OCCO)[C@H](OC)C2)CC(=O)[C@H](C)/C=C(\C)[C@@H](O)[C@@H](OC)C(=O)[C@H](C)C[C@H](C)/C=C/C=C/C=C/1C [everolimus]	-3	-0.608	-0.439	-0.358				
O=S(=O)(c1cccc2cnccc12)N1CCCNCC1 [fasudil]	3.71	4.27	5.61	72				
CS(=O)(=O)CCNCc1ccc(-c2ccc3ncnc(Nc4ccc(OCc5cccc(F)c5)c(Cl)c4)c3c2)o1 [lapatinib]	0.904	5.46	-2.21	3.3				
Cc1cn(-c2cc(NC(=O)c3ccc(C)c(Nc4nccc(-c5cccnc5)n4)c3)cc(C(F)(F)F)c2)cn1 [nilotinib]	-1.78		17	2.56			-0.679	
Cc1ccc(Nc2nccc(N(C)c3ccc4c(C)n(C)nc4c3)n2)cc1S(N)(=O)=O [pazopanib]	0.627	94		-0.746				
Cc1ccc(C(=O)Nc2ccc(CN3CCN(C)CC3)c(C(F)(F)F)c2)cc1C#Cc1cnc2cccnn12 [ponatinib]	46	58	101					
CNC(=O)c1cc(Oc2ccc(NC(=O)Nc3ccc(Cl)c(C(F)(F)F)c3)c(F)c2)ccn1 [regorafenib]	-4.61	5	104	-8				
N#CC[C@H](C1CCCC1)n1cc(-c2ncnc3[nH]ccc23)cn1 [ruxolitinib]				-6.62	2.26		54	36
CO[C@H]1C[C@@H]2CC[C@@H](C)[C@@](O)(O2)C(=O)C(=O)N2CCCC[C@H]2C(=O)O[C@H]([C@H](C)C[C@@H]2CC[C@@H](OC(=O)C(C)(CO)CO)[C@H](OC)C2)CC(=O)[C@H](C)/C=C(\C)[C@@H](O)[C@@H](OC)C(=O)[C@H](C)C[C@H](C)/C=C/C=C/C=C/1C [temsirolimus]	-4.44	-2	-0.926	3				
CC(=O)Nc1cccc(-n2c(=O)n(C3CC3)c(=O)c3c(Nc4ccc(I)cc4F)n(C)c(=O)c(C)c32)c1 [trametinib]	0.741	-0.611	1.51	5				
COc1cc2c(Nc3ccc(Br)cc3F)ncnc2cc1OCC1CCN(C)CC1 [vandetanib]	-4.53	48	104	-3.76				
CCCS(=O)(=O)Nc1ccc(F)c(C(=O)c2c[nH]c3ncc(-c4ccc(Cl)cc4)cc23)c1F [vemurafenib]	-3.31	2	24	-3				
